Reference: patent US20240041050A1, “CELL PENETRATING PEPTIDE MEDIATED RNA TRANSDUCTION WITHIN INSECT CELLS” (PIONEER HI-BRED INTERNATIONAL, INC., priority 2020, published 2024)
Peptide text beside a SMILES is read from it.

Columns and labels:
[1] = test system: DU182A cells; test: CPP-mediated delivery of mCherry mRNA cargo into insect cells; type: cell-based, Diabrotica undecimpunctata; settings: complex of 75 μM unlabeled CPP and 10 μg mCherry mRNA, overnight
Source text: (§1) Sample preparation and analysis methods were based on those previously reported (Jafari et al. (201 4) “Serum stability and physicochemical characterization of a novel amphipathic peptide C6M 1 for siRNA delivery”, PLoS One, 9(5), e97797; and Gillet et al. (2017) “Investigating Engineered Ribonucleoprotein Particles to Improve Oral RNAi Delivery in Crop Insect Pests”, Frontiers in Physiology, 8(256), doi: 10.3389/fphys.2017.00256). Reagents are described in Examples 1 and 2. Nanocomplex samples were prepared in one of several ways, depending on type of CPP, RNA, or assay. […] Reaction volumes added to cells were 6.38 μL CPP and 6.38 μL mRNA. Final optimal CPP concentration was assessed by amount of fluorescent signal apparent within cells. For insect cell-based assays with CPP-YFP·Cy3-dsRNA or CPP·dsRNA, first a complex formation solution was prepared in molecular biology-grade water containing 90 mg·mL^−1 maltose, 9 mg·mL^−1 mannitol, 392. 16 mM CaCI2, pH 7.0, and vacuum-filtered using Corning™ Disposable Vacuum Filter and Storage System containing a cellulose nitrate filter. Then, increasing amounts of CPP-YFP were added to Cy3-dsRNA, from a molar ratio (CPP-YFP:Cy3-dsRNA) of 1:4 through 8:1 and incubated protected from light at 25° C. for 90 minutes prior to assessment via gel shift and DLS. Reaction volumes added per cell well were comprised of 17 μL reaction solution, 1 μL CPP, 1 μL dsRNA, and 1 μL molecular biology grade water; reaction sizes for larger total volumes were increased in increments of 20 μL and component ratio was held constant to maintain an ionic strength of […]. Final optimal molar ratio selected for cell experiments were determined by increase of the apparent size of the Cy3-dsRNA band on a native agarose gel (FIG. 2A and FIG. 2B), and/or appearance and increase in size of the complex peak detected by a Zetasizer Ultra (Malvern Panalytical, Malvern, United Kingdom) DLS instrument (FIG. 2C). […] Final optimal BAPC1 concentration was assessed by amount of fluorescent signal apparent within cells. […]

[2] = test system: DvWL2 cells; test: as above; type: cell-based, Diabrotica virgifera virgifera; settings: complex of 75 μM unlabeled CPP and 10 μg mCherry mRNA, overnight
Source text: as §1

N=C(N)NCCC[C@H](NC(=O)[C@H](Cc1c[nH]c2ccccc12)NC(=O)[C@H](CCCNC(=N)N)NC(=O)[C@@H](N)CS)C(=O)N[C@@H](Cc1c[nH]c2ccccc12)C(=O)N[C@@H](CCCCN)C(=O)N[C@@H](CS)C(=O)N[C@@H](CS)C(=O)N[C@@H](CCCCN)C(=O)N[C@@H](CCCCN)C(=O)O [CyLoP-1, CRWRWKCCKK] (H-CRWRWKCCKK-OH; N-terminus and C-terminus assumed)
fluorescent protein translated from delivered mCherry mRNA (fluorescent signal inside cells) [1]: Translation of mRNA into a functional fluorescent protein occurred | fluorescent protein translated from delivered mCherry mRNA (fluorescent signal inside cells) [2]: Translation of mRNA into a functional fluorescent protein occurred
